# How the values were obtained:
# [1] = test system: Vero cells
# [2] = test system: Sindbis virus; conditions: cited from earlier work
# [3] = in vitro; conditions: African green monkey, CC50 of cell death
compound,measurement,setting,value
C=CCC(=NOS(=O)(=O)O)S[C@@H]1O[C@H](CO)[C@@H](O)[C@H](O)[C@H]1O (stereo in doubt) [Sinigrin],CC50,[1],> 10000 µM
same,CC50 of cell death,[1],">5000 (>10,000 μM) μg/ml"
COc1ccc([C@@H]2CC(=O)c3c(O)cc(O)cc3O2)cc1O [Hesperetin],"IC50, inhibitory activity on Sindbis virus infection",[2],20.5 µg/mL
same,IC50,"[2]; read-out: IC50, inhibitory activity on Sindbis virus infection",~68 µM
O=C1/C(=C2\Nc3ccccc3C2=O)Nc2ccccc21 [Indigo],CC50,[3],917 µg/mL

# Reference: paper PMC7114321 (Antiviral Research, 2005)
